Source: EPA's ToxValDB 9.5 (doi:10.2903/j.efsa.2013.3269)
Converted amounts (≈) assume the structure as drawn. “And” between values parts separate entries of the source, which are not always exact repeats. Identical values can stand only once.

Legend:
[1] = system: Anas platyrhynchos; conditions: oral, mortality
[2] = system: Apis mellifera; conditions: acute, duration: 48 hours, mortality
[3] = system: Colinus virginianus; conditions: acute; oral; diet; mortality
[4] = system: Oncorhynchus mykiss; conditions: acute; duration: 96 hours; mortality
[5] = system: Oryctolagus sp.; conditions: developmental; development
[6] = system: Rattus norvegicus
[7] = system: Tagia sp.; conditions: acute; duration: 14 days; mortality
[8] = system: Aphidius rhopalosiphi; experiment: LR50; higher = less toxic; conditions: acute; duration: 48 hours; mortality
[9] = system: Typhlodromus pyri; experiment: LR50; higher = less toxic; conditions: acute; duration: 7 days; mortality

## CCc1cc(C)cc(CC)c1-c1c(OC(=O)C(C)(C)C)n2n(c1=O)CCOCC2 [Pinoxaden]
[1]; acute, unspecified
  LD50: > 2250 mg/kg-day
[1]; short-term, feed
  LC50: > 1800 mg/kg-day
[2]; dermal
  LD50: > 100 µg/piece
[2]; oral, unspecified
  LD50: > 200 µg/piece
[3]
  LC50: > 1570 mg/kg-day
[4]
  LC50: 10.3 µg/mL (≈ 25.7 µM)
[5]
  NOAEL: 30 mg/kg-day and 10 mg/kg-day
[6]; acute, oral, mortality
  LD50: > 5000 mg/kg-day
[6]; chronic, duration: 2 years, histopathology: nonneoplastic
  NOAEL: 10 mg/kg-day
[6]; reproduction developmental, body weight
  NOAEL: 250 mg/kg-day
[6]; reproduction developmental, oral, gavage, no effects
  NOAEL: 500 mg/kg-day
[7]
  LC50: > 1000 mg/kg
[8]
  LR50: 6.22 g/ha
[9]
  LR50: 1.81 g/ha
